Experiment [1] has as its system IL-5. In words: Inhibition of the release of IL-5. Particulars: at 0.1 μM/l. The experiment is classed as cell-based. The procedure:
(§1) 2-amino-4-morpholino-6-(3,4-dimethoxyphenyl)pteridine (a compound known from WO 00/39129) was tested, according to experimental procedures well established in the art, in the inhibition of two cytokines, IL-5 and IL-10, known to be involved in the development of asthma and other forms of severe allergic conditions.

In experiment [2] the test system is B16BL/6 melanoma cells. In words: Inhibition of the metastasis of melanoma cells in mice. The experiment is classed as in vivo, C57BL/6 mice. Particulars: 20 mg/kg intraperitoneously, three times a week for two weeks; control group 80%. The protocol:
C57BL/6 mice were injected with 1.5×10^6 B16BL/6 melanoma cells and were divided into 2 groups. Five days after the injection of the tumor cells, the two groups of animals were administered intraperitoneously, three times a week for two subsequent weeks, either (treated group) 20 mg/kg of 2-amino-4-morpholino-6-(3,4-dimethoxyphenyl)pteridine (a compound known from WO 00/39129) or (control group) the vehicle (5% DMSO in phosphate buffered saline). At the end of the experiment, all surviving tumor-bearing mice were sacrificed and examined in order to assess the absence or presence of the black metastases in inguinal and/or para-aortic lymph nodes (macroscopic metastasis). The findings were confirmed by histology, and the experiment done twice.

For experiment [3], the system named is IL-10. Description: Inhibition of the release of IL-10. The experiment is classed as cell-based. The settings on record: at 0.1 μM/l. The protocol:
as §1

The test system of experiment [4] is Highly purified T cells stimulated by anti-CD28 mAb. In words: CD28 assay: T-cell proliferation stimulated by anti-CD28 mAb + PMA (BrdU). Format: cell-based, human. The settings on record: Homo sapiens; 50% reduction in T-cell proliferation. The protocol:
(§2) Pteridine derivatives were first dissolved (10 mM) in dimethylsulfoxide (hereinafter referred as DMSO) and further diluted in culture medium before use for the following in vitro experiments. The commercially available culture medium consisted of RPMI-1640+10% foetal calf serum (FCS). Some pteridine derivatives described the previous examples were tested in the following lymphocyte activation tests:
(§3) T cells were purified by removing non-T cells. Briefly, monocytes were removed by cold agglutination. The resulting lymphoid cells were further purified by a cell enrichment immunocolumn [Cellect Human T commercially available from Biotex, Edmonton, Alberta, Canada)] by a process of negative selection. More than 95% of the B cells were removed with this procedure. After depletion, the resulting T cell preparation was highly purified, i.e. these cells could not be activated by phytohaemagglutinin (PHA) or rIL-2 alone at concentrations capable of stimulating RBMC prior to deletion.
(§4) Highly purified T cells (10^6/ml) were stimulated by immobilized anti-CD3 or anti-CD28 monoclonal antibodies (hereinafter referred as mAb) in the presence of phorbol myristate acetate (hereinafter referred as PMA). Anti-CD3 mAb (available from CLB, Amsterdam, Netherlands) were fixed on a 96-microwell plates by incubating the wells with 50 μl of mAb solution (1/800 dilution in culture medium). For anti-CD28 mAb (available from CLB, Amsterdam, Netherlands) 50 μl (1/650 dilution in culture medium) was added directly to the wells. Further, a 20 μl PMA (commercially available from Sigma, St. Louis, Mo., USA) solution (final concentration: 0.5 ng/ml) was added. Subsequently, 20 μl of a pteridine derivative described in the previous examples were added by serial dilution in triplicate wells. Finally 100 μl of the T-cell suspension (10^6/ml) was added. After 48-hour incubation at 37° C. in 5% CO2, 20 μl of a bromo-deuridine (hereinafter referred as BrdU) 100 μM solution (commercially available as Cell Proliferation Elisa from Boehringer-Mannheim Belgium) was added to each well. After a further overnight incubation, T-cell proliferation was measured using a calorimetric immuno-assay for qualification of cell proliferation based on the incorporation of BrdU during DNA synthesis. Optical density (hereinafter referred as OD) was measured by a Behring EL311 plate reader at 450 nm (reference wavelength: 690 nm). Inhibition of proliferation by the pteridine derivative (drug) was counted while using the formula: […]

For experiment [5], the system named is human TNF-α. Description: TNF-α assay: suppression of TNF-α production by LPS-stimulated PBMC (ELISA). The experiment is classed as cell-based. The settings on record: Homo sapiens, PBMC; Table 2; LPS 1 μg/ml, 72 hours. The procedure:
Peripheral blood mononuclear cells (herein referred as PBMC), in response to stimulation by lipopolysaccharide (LPS), a gram-negative bacterial endotoxin, produce various […], in particular human TNF-α and IL-1 β. Inhibition of the activation of PBMC can therefore be measured by the level of suppression of the production of TNF-α or IL-1 β by PBMC in response to stimulation by LPS.
(§5) Such inhibition measurement was performed as follows: PBMC were isolated from heparinized peripheral blood by density gradient centrifugation over Lymphoprep (commercially available from Nycomed, Norway). LPS was then added to the PMBC suspension in complete medium (10^6 cells/ml) at a final concentration of 1 μg/ml. The pteridine derivative to be tested was added at different concentrations (0.1 μM, 1 μM and 10 μM) and the cells were incubated at 37° C. for 72 hours in 5% CO2. The supernatants were collected, then TNF-α and/or IL-1 β concentrations were measured with respectively an anti-TNF-α antibody or an anti-IL-1 β antibody in a sandwich ELISA (Duo Set ELISA human TNFα, commercially available from R&D Systems, United Kingdom). The calorimetric reading of the ELISA was measured by a Multiskan RC plate reader (commercially available from ThermoLabsystems, Finland) at 450 nm (reference wavelength: 690 nm). Data analysis was performed with Ascent software 2.6. (also from ThermoLabsystems, Finland): a standard curve (recombinant human TNFα) was drawn and the amount (pg/ml) of each sample on the standard curve was determined.
The % suppression of human TNFα production or human IL-1 β by the pteridine derivatives of the invention (drugs) was calculated using the formula: […]
Peripheral blood mononuclear cells (herein referred as PBMC), in response to stimulation by lipopolysaccharide (hereinafter LPS), a gram-negative bacterial endotoxin, produce various […], in particular human TNF-α. Inhibition of the activation of PBMC can therefore be measured by the level of suppression of the production of TNF-α by PBMC in response to stimulation by LPS.
as §5, with “TNF-α” for “TNF-α and/or IL-1 β”, “with” for “with respectively”, “anti-TNF-α” for “anti-TNF-α antibody or an anti-IL-1 β”, “TNF-α,” for “TNFα,”, “colorimetric” for “calorimetric”
The % suppression of human TNFα production by the pteridine derivatives of the invention (drugs) was calculated using the formula: […]
(An ELISA detects its analyte on a solid surface through an enzyme-linked reagent.)

Experiment [6] concerns Highly purified T cells stimulated by anti-CD3 mAb. Description: CD3 assay: T-cell proliferation stimulated by immobilized anti-CD3 mAb + PMA (BrdU). The experiment is classed as cell-based, human. The settings on record: Homo sapiens; 50% reduction in T-cell proliferation; read-out: CD 3 IC50. The protocol: as §2, §3, §4
Experiment [7] relates to Peripheral blood mononuclear cells. In words: Mixed lymphocyte reaction (MLR) test. Format: cell-based, human. Particulars: Homo sapiens, PBMC; Table 1; 50% suppression of the MLR. The procedure: as §2
(§6) Peripheral blood mononuclear cells (hereinafter referred as PBMC) were isolated from heparinized peripheral blood by density gradient centrifugation over Lymphoprep (Nycomed, Maorstua, Norway). Allogeneic PBMC or Eppstein-Barr Virus-transformed human B cells [commercially available under the trade name RPMI1788 (ATCC name CCL156)] which strongly express B7-1 and B7-2 antigens were used as stimulator cells after irradiation with 30 Gy. MLR was performed in triplicate wells. After 5 days incubation at 37° C., 1 μCi [^3H]-thymidine was added to each cup. After a further 16 hours incubation, cells were harvested and counted in a β-counter. Inhibition of proliferation by a compound (drug) described in some of the previous examples was counted using the formula:
[formula] wherein cpm is the thymidine count per minute. The MLR assay is regarded by those skilled in the art as an in vitro analogue of the transplant rejection since it is based on the recognition of allogeneic major histocompatibility antigens on the stimulator leukocytes, by responding lymphocytes. Assays for CD3 and CD 28
Pteridine derivatives were first dissolved (10 mM) in dimethylsulfoxide (hereinafter referred as DMSO) and further diluted in culture medium before use for the following in vitro experiments. The commercially available culture medium consisted of RPMI-1640+10% foetal calf serum (FCS). Some pteridine derivatives described in the previous examples (as indicated in table 3 below) were tested in the following mixed lymphocyte reaction (MLR) assay.
as §6, with “CCL156)]which” for “CCL156)] which”
[formula] wherein cpm is the thymidine count per minute. The MLR assay is regarded by those skilled in the art as an in vitro analogue of the transplant rejection since it is based on the recognition of allogeneic major histocompatibility antigens on the stimulator leukocytes, by responding lymphocytes.

The subject of experiment [8] is Peripheral blood T cells. In words: In vivo leukocyte activation and immunosuppression whole blood assay (ConA stimulation, FACScan). Details: species or system mice. Particulars: 30 mg/kg per day i.p.; for TCR+, CD69+ peripheral blood T cells after ConA: 2 hours before ConA, baseline 0.5%; for TCR+, CD69+ peripheral blood T cells after ConA / TCR+, IL-2R+ peripheral blood T cells after ConA: untreated up to 3%; for ConA-stimulated CD71 up-regulation on T cells: baseline 4.8%, untreated 9.3% and 5.5% after 1 and 2 days; for CD134 expression on peripheral blood T cells after ConA: untreated up to 6.6% within 2 days, baseline […]. The procedure: Inbred mice (e.g. AKR strain), weighting from 20 to 30 g, were stimulated by intraperitoneal injection with mitogens specific for T cells (e.g. Concanavalin A, hereinafter referred as ConA, 500 μg per mouse), B cells or monocytes/macrophages (e.g. LPS 20 μg per mouse). […] Peripheral blood was collected 24, 36, 48, and respectively 72 hours after stimulation for immune fluorescence staining and FACScan analysis.
FACScan analysis proceeded as follows: heparinized whole blood (50 μl) was removed of red blood cells by incubation with a lysing buffer. The remaining leukocytes were double-stained with phycoerythrin-conjugated antibodies specific for T cells (e.g. T cell receptor TCR), B cells (e.g. CD45R/B220 (commercially available from Pharmingen) or monocytes/macrophages (e.g. F4/80) (commer-cially available from Serotec) in combination with FITC-conjugated antibodies against various cell surface markers such as CD69 (early activation molecule), CD25 (IL-2 receptor), CD71 (transferring receptor), B7-1/2 (ligand for the co-stimulatory molecule CD28) and CD11b (complement receptor 3). Cells were examined by flow cytometry using CellQuest software (commercially available from Decton Dickinson).

For orientation: inhibition means the change of the read-out against control, counted positive when it falls. A low value points to a response near the control. Broadly, the IC50 is the midpoint of a concentration-inhibition curve.

As for `COc1ccc(-c2cnc3nc(N)nc(N4CCOCC4)c3n2)cc1OC` [2-amino-4-morpholino-6-(3,4-dimethoxyphenyl)pteridine], the inhibition at 0.1 µM in experiment [1] stood at 70%; in experiment [3], 39%. The “animals with metastases (inguinal and/or para-aortic lymph nodes)” value in experiment [2] came to 33%.

Take `CCOc1nc(N)nc2ncc(-c3cccc(OC)c3)nc12` [Example 15, 2-amino-6-(m-methoxyphenyl)-4-ethoxy-pteridine]: the IC50 is 7 µM in experiment [4], greater than 10 µM in experiment [5], 20 µM in experiment [6] and 8.3 µM in experiment [7].

For `CCOc1nc(N)nc2ncc(-c3ccc(CC)cc3)nc12` [Example 25, 2-amino-6-(p-ethylphenyl)-4-ethoxy-pteridine], the IC50 in experiment [4] came out at 10 µM; in experiment [5], 8.5 µM; in experiment [6], 10 µM; in experiment [7], 8.2 µM.

Regarding `CCOc1nc(N)nc2ncc(-c3ccc(OC)c(OC)c3)nc12` [Example 30, 2-amino-6-(3,4-dimethoxyphenyl)-4-ethoxy-pteridine], the IC50 in experiment [4] came out at 0.7 µM. For the same compound, in experiment [6], the IC50 was determined as 0.7 µM. In experiment [8], the “TCR+, CD69+ peripheral blood T cells after ConA” value came to 1.6%; the “ConA-stimulated CD71 up-regulation on T cells” value is recorded as “baseline levels”; the “TCR+, IL-2R+ peripheral blood T cells after ConA” value is recorded as 1.5%; the “CD134 expression on peripheral blood T cells after ConA” value was found to be 3.5%. The IC50 in experiment [7] worked out at 0.9 µM.

As to `COc1ccc(-c2cnc3nc(N)nc(OC(C)C)c3n2)cc1OC` [Example 45, 2-amino-6-(3,4-dimethoxyphenyl)-4-isopropoxypteridine], the IC50 in experiment [4] is 1.7 µM. In addition, in experiment [6], the IC50 is 6.7 µM. Also, in experiment [8], the “TCR+, CD69+ peripheral blood T cells after ConA” value is on record as 2.4%; the “ConA-stimulated CD71 up-regulation on T cells” value is recorded as “baseline levels”; the “TCR+, IL-2R+ peripheral blood T cells after ConA” value was 1.7%; the “CD134 expression on peripheral blood T cells after ConA” value is on record as 4.2%. Also, the IC50 in experiment [7] worked out at 0.4 µM.

Values taken from patent publication US7501513B2, “Immunosuppressive effects of pteridine derivatives” (4 AZA Bioscience NV, priority 2003, dated 2009).
